Data from PubChem BioAssay AID180 (DTP/NCI, 2004).
Where “and” joins values, the source holds several entries; their conditions need not be identical. Equal values may be shown once.

Test system: BDF1 mice, Adenocarcinoma 755 s.c., tumor weight T/C
Experiment: NCI In Vivo Anticancer Drug Screen. Data for tumor model Adenocarcinoma 755 (subcutaneous) in B6D2F1 (BDF1) mice
Details: endpoint: mean tumor weight, higher = larger tumour
Procedure, shortened: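 Compound activity was tested in mice carrying transplanted tumors. Survival or tumor size was measured, and each value is the treated-group measurement divided by that of the vehicle-treated control group (T/C).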

[1] = dose: 25.0 mg/kg/injection, schedule: Q01DX011 (ip), vehicle: saline
[2] = dose: 100.0 mg/kg/injection, schedule: Q01DX011 (ip), vehicle: saline
[3] = dose: 75.0 mg/kg/injection, schedule: Q01DX011 (ip), vehicle: methylcellulose (MC)
[4] = dose: 25.0 mg/kg/injection, schedule: Q01DX011 (ip), vehicle: other

## Nc1nc(Cl)nc2c1ncn2C1OC(CO)C(O)C1O (configuration not stated)
dose: 0.05 mg/kg/injection, schedule: Q01DX011 (ip), vehicle: methylcellulose (MC)
  T/C: 59 % of control
dose: 0.1 mg/kg/injection, schedule: Q01DX011 (ip), vehicle: methylcellulose (MC)
  T/C: 84 % of control
dose: 0.2 mg/kg/injection, schedule: Q01DX011 (ip), vehicle: methylcellulose (MC)
  T/C: 48 % of control

## N#[N+]c1nc2ncnc(N)c2[nH]1
dose: 12.5 mg/kg/injection, schedule: Q01DX011 (ip), vehicle: saline
  T/C: 101 % of control
[1]
  T/C: 70 % of control

## Nc1nc(N)c2cnnn2n1
[1]
  T/C: 83 % of control
dose: 75.0 mg/kg/injection, schedule: Q01DX011 (ip), vehicle: saline
  T/C: 116 % of control

## C[N+](C)(C)c1ncnc2c1ncn2C1CCCCO1 (configuration not stated)
dose: 33.0 mg/kg/injection, schedule: Q01DX011 (ip), vehicle: saline
  T/C: 58 % of control
[2]
  T/C: 12 % of control

## CSc1ncc(Br)c(Sc2nc(N)nc3nc[nH]c23)n1
dose: 1.0 mg/kg/injection, schedule: Q01DX011 (ip), vehicle: methylcellulose (MC)
  T/C: 75 % of control
dose: 3.0 mg/kg/injection, schedule: Q01DX011 (ip), vehicle: methylcellulose (MC)
  T/C: 87 % of control
dose: 6.0 mg/kg/injection, schedule: Q01DX011 (ip), vehicle: methylcellulose (MC)
  T/C: 14 % of control
dose: 12.0 mg/kg/injection, schedule: Q01DX011 (ip), vehicle: methylcellulose (MC)
  T/C: 3 % of control
dose: 15.0 mg/kg/injection, schedule: Q01DX011 (ip), vehicle: carboxymethylcellulose (CMC)
  T/C: 10 % of control

## O=C1CN(/N=C\c2ccc([N+](=O)[O-])o2)C(=O)N1
dose: 4.74 mg/kg/injection, schedule: Q01DX011 (ip), vehicle: carboxymethylcellulose (CMC)
  T/C: 111 % of control
dose: 8.03 mg/kg/injection, schedule: Q01DX011 (ip), vehicle: carboxymethylcellulose (CMC)
  T/C: 96 % of control
dose: 9.48 mg/kg/injection, schedule: Q01DX011 (ip), vehicle: carboxymethylcellulose (CMC)
  T/C: 121 % of control
dose: 12.5 mg/kg/injection, schedule: Q01DX011 (ip), vehicle: methylcellulose (MC)
  T/C: 83 % of control
dose: 16.05 mg/kg/injection, schedule: Q01DX011 (ip), vehicle: carboxymethylcellulose (CMC)
  T/C: 115 % of control
dose: 18.95 mg/kg/injection, schedule: Q01DX011 (ip), vehicle: carboxymethylcellulose (CMC)
  T/C: 94 % of control
dose: 25.0 mg/kg/injection, schedule: Q01DX011 (ip), vehicle: methylcellulose (MC)
  T/C: 61 % of control
dose: 25.68 mg/kg/injection, schedule: Q01DX011 (ip), vehicle: carboxymethylcellulose (CMC)
  T/C: 68 % of control
dose: 35.0 mg/kg/injection, schedule: Q01DX011 (ip), vehicle: carboxymethylcellulose (CMC)
  T/C: 84 % of control
dose: 37.9 mg/kg/injection, schedule: Q01DX011 (ip), vehicle: carboxymethylcellulose (CMC)
  T/C: 80 % of control
dose: 42.8 mg/kg/injection, schedule: Q01DX011 (ip), vehicle: carboxymethylcellulose (CMC)
  T/C: 41 % of control
dose: 45.0 mg/kg/injection, schedule: Q01DX011 (ip), vehicle: carboxymethylcellulose (CMC)
  T/C: 64 % of control
dose: 50.0 mg/kg/injection, schedule: Q01DX011 (ip), vehicle: methylcellulose (MC)
  T/C: 75 % of control
dose: 56.0 mg/kg/injection, schedule: Q01DX011 (ip), vehicle: carboxymethylcellulose (CMC)
  T/C: 98 % of control
dose: 64.0 mg/kg/injection, schedule: Q01DX011 (ip), vehicle: carboxymethylcellulose (CMC)
  T/C: 72 % of control
[3]
  T/C: 55 % of control
dose: 100.0 mg/kg/injection, schedule: Q01DX011 (ip), vehicle: methylcellulose (MC)
  T/C: 89 % of control

## CCCCn1cnc2c(=O)[nH]cnc21
dose: 0.9 mg/kg/injection, schedule: Q01DX011 (ip), vehicle: carboxymethylcellulose (CMC)
  T/C: 76 % of control
dose: 1.8 mg/kg/injection, schedule: Q01DX011 (ip), vehicle: carboxymethylcellulose (CMC)
  T/C: 83 % of control
dose: 1.8 mg/kg/injection, schedule: Q01DX011 (oral), vehicle: carboxymethylcellulose (CMC)
  T/C: 76 % of control
dose: 3.7 mg/kg/injection, schedule: Q01DX011 (ip), vehicle: carboxymethylcellulose (CMC)
  T/C: 91 % of control
dose: 3.7 mg/kg/injection, schedule: Q01DX011 (oral), vehicle: carboxymethylcellulose (CMC)
  T/C: 107 % of control
dose: 7.5 mg/kg/injection, schedule: Q01DX011 (ip), vehicle: carboxymethylcellulose (CMC)
  T/C: 63 % of control
dose: 7.5 mg/kg/injection, schedule: Q01DX011 (oral), vehicle: carboxymethylcellulose (CMC)
  T/C: 82 % of control
dose: 15.0 mg/kg/injection, schedule: Q01DX011 (oral), vehicle: carboxymethylcellulose (CMC)
  T/C: 90 % of control
dose: 40.0 mg/kg/injection, schedule: Q01DX001 (ip), vehicle: other
  T/C: 60 % of control
dose: 66.1 mg/kg/injection, schedule: Q01DX011 (ip), vehicle: other
  T/C: 111 % of control
dose: 81.0 mg/kg/injection, schedule: Q01DX001 (ip), vehicle: other
  T/C: 45 % of control
dose: 132.2 mg/kg/injection, schedule: Q01DX011 (ip), vehicle: other
  T/C: 90 % of control
dose: 132.25 mg/kg/injection, schedule: Q01DX011 (ip), vehicle: carboxymethylcellulose (CMC)
  T/C: 58 % of control
dose: 132.25 mg/kg/injection, schedule: Q01DX011 (oral), vehicle: carboxymethylcellulose (CMC)
  T/C: 70 % of control
dose: 162.0 mg/kg/injection, schedule: Q01DX001 (ip), vehicle: other
  T/C: 122 % of control
dose: 264.5 mg/kg/injection, schedule: Q01DX011 (ip), vehicle: carboxymethylcellulose (CMC)
  T/C: 105 % of control
dose: 264.5 mg/kg/injection, schedule: Q01DX011 (ip), vehicle: other
  T/C: 76 % of control
dose: 264.5 mg/kg/injection, schedule: Q01DX011 (oral), vehicle: carboxymethylcellulose (CMC)
  T/C: 86 % of control
dose: 324.0 mg/kg/injection, schedule: Q01DX001 (ip), vehicle: other
  T/C: 102 % of control
dose: 529.0 mg/kg/injection, schedule: Q01DX011 (oral), vehicle: carboxymethylcellulose (CMC)
  T/C: 89 % of control

## C[C@]12CCCC[C@@H]1CC[C@@H]1[C@@H]2[C@@](C)(O)C[C@@]2(C)[C@H]1CC[C@]2(C)O
dose: 300.0 mg/kg/injection, schedule: Q01DX011 (sc), vehicle: steriod suspending solution
  T/C: 79 % of control

## N#[N+]c1nc[nH]c1C(N)=O
dose: 1.25 mg/kg/injection, schedule: Q01DX011 (ip), vehicle: methylcellulose (MC)
  T/C: 61 % of control

## CCOC1CCCC(n2cnc3c(Cl)ncnc32)O1 (configuration not stated)
dose: 7.81 mg/kg/injection, schedule: Q01DX011 (ip), vehicle: methylcellulose (MC)
  T/C: 64 % of control
dose: 15.63 mg/kg/injection, schedule: Q01DX011 (ip), vehicle: methylcellulose (MC)
  T/C: 65 % of control
dose: 31.25 mg/kg/injection, schedule: Q01DX011 (ip), vehicle: methylcellulose (MC)
  T/C: 43 % of control
dose: 62.5 mg/kg/injection, schedule: Q01DX011 (ip), vehicle: methylcellulose (MC)
  T/C: 3 % of control and 17 % of control

## O=C1C=C(c2ccccc2)C(=O)C=C1c1ccccc1
dose: 12.5 mg/kg/injection, schedule: Q01DX011 (ip), vehicle: other
  T/C: 72 % of control
[4]
  T/C: 48 % of control

## OCCN1CCN(CC/C=C2/c3ccccc3Sc3ccc(Cl)cc32)CC1
dose: 2.5 mg/kg/injection, schedule: Q01DX011 (ip), vehicle: methylcellulose (MC)
  T/C: 90 % of control and 88 % of control
dose: 5.0 mg/kg/injection, schedule: Q01DX011 (ip), vehicle: methylcellulose (MC)
  T/C: 40 % of control and 42 % of control
dose: 10.0 mg/kg/injection, schedule: Q01DX011 (ip), vehicle: methylcellulose (MC)
  T/C: 32 % of control
dose: 20.0 mg/kg/injection, schedule: Q01DX011 (ip), vehicle: methylcellulose (MC)
  T/C: 17 % of control

## CCCCn1cnc2c(SC3CCCC3)ncnc21
dose: 25.0 mg/kg/injection, schedule: Q01DX011 (ip), vehicle: carboxymethylcellulose (CMC)
  T/C: 38 % of control
dose: 50.0 mg/kg/injection, schedule: Q01DX011 (ip), vehicle: carboxymethylcellulose (CMC)
  T/C: 13 % of control
dose: 100.0 mg/kg/injection, schedule: Q01DX011 (ip), vehicle: carboxymethylcellulose (CMC)
  T/C: 4 % of control
dose: 200.0 mg/kg/injection, schedule: Q01DX011 (ip), vehicle: carboxymethylcellulose (CMC)
  T/C: 3 % of control

## O=C(Nc1ccc(C2=NCCN2)cc1)c1ccc(N=Nc2ccc(C(=O)Nc3ccc(C4=NCCN4)cc3)cc2)cc1
dose: 15.0 mg/kg/injection, schedule: Q01DX011 (ip), vehicle: methylcellulose (MC)
  T/C: 151 % of control
dose: 30.0 mg/kg/injection, schedule: Q01DX011 (ip), vehicle: methylcellulose (MC)
  T/C: 119 % of control
dose: 120.0 mg/kg/injection, schedule: Q01DX011 (ip), vehicle: methylcellulose (MC)
  T/C: 100 % of control

## CSc1nc(N)cc(=O)n1C
dose: 50.0 mg/kg/injection, schedule: Q01DX011 (ip), vehicle: saline
  T/C: 100 % of control
[2]
  T/C: 63 % of control
dose: 200.0 mg/kg/injection, schedule: Q01DX011 (ip), vehicle: saline
  T/C: 98 % of control

## Nc1ncnc2c1ncn2CCCl
dose: 37.5 mg/kg/injection, schedule: Q01DX011 (ip), vehicle: methylcellulose (MC)
  T/C: 84 % of control
[3]
  T/C: 31 % of control

## NC(=O)CCl
[4]
  T/C: 91 % of control
dose: 50.0 mg/kg/injection, schedule: Q01DX011 (ip), vehicle: other
  T/C: 64 % of control
